Experiments:
[1] = target: T1, Oct1 (Solute carrier family 22 member 1) (Mus musculus, UniProt O08966); assay: TP_TRANSPORTER: inhibition of TEA uptake (TEA: 50 uM, Quinidine: 1000 uM) in Oct1-expressing BALB/3T3 cells; assay type: functional, cell-based; parameters: scale not given: the % may be the effect or the level left; conditions: BALB/3T3 cells expressing Oct1, probe TEA (50 uM), read-out: Activity
T1 sequence (O08966 whole entry): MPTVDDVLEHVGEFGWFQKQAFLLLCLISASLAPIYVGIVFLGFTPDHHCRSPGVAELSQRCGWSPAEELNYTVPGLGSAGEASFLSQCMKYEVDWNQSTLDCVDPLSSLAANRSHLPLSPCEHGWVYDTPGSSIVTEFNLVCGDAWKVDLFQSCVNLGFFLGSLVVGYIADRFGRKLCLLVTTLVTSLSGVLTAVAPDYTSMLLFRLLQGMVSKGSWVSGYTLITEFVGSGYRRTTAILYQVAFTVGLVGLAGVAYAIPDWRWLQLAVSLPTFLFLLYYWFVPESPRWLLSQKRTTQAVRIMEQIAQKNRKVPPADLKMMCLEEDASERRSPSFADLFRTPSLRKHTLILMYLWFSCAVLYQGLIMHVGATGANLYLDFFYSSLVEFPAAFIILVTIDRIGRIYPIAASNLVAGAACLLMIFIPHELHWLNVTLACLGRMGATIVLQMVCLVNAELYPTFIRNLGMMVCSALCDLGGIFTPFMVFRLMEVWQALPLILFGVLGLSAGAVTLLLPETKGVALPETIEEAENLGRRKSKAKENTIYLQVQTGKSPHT

[2] = target: T2, Solute carrier family 22 member 1 (Mus musculus, UniProt O08966); assay: TP_TRANSPORTER: inhibition of TEA uptake (TEA: 50 uM, TMA: 10000 uM) in Oct1-expressing BALB/3T3 cells; assay type: functional, cell-based; parameters: scale not given: the % may be the effect or the level left
T2 sequence (O08966 whole entry): T1 sequence (O08966 whole entry)

[3] = target: T1, Oct1 (Solute carrier family 22 member 1); assay: TP_TRANSPORTER: inhibition of TEA uptake (TEA: 50 uM, NMN: 10000 uM) in Oct1-expressing BALB/3T3 cells; assay type: functional, cell-based; parameters: scale not given: the % may be the effect or the level left; conditions: BALB/3T3 cells expressing Oct1, probe TEA (50 uM), read-out: Activity
[4] = target: T1, Oct1 (Solute carrier family 22 member 1); assay: in vitro; conditions: BALB/3T3 cells expressing Oct1, probe TEA (50 uM)
Description: TP_TRANSPORTER: inhibition of TEA uptake (TEA: 50 uM, Thiamine: 10000 uM) in Oct1-expressing BALB/3T3 cells

[5] = substrate: C[N+](C)(C)CCO; assay: cells, lysate or membranes named
[6] = substrate: CCCC[N+](CCCC)(CCCC)CCCC; assay: cells, lysate or membranes named

In the case of `C=C[C@H]1C[N@@]2CC[C@H]1C[C@@H]2[C@@H](O)c1ccnc2ccc(OC)cc12` [QUINIDINE], the activity at 1000 µM [1] is reported as 0%.

For `C[N+](C)(C)C.[Cl-]` [TETRAMETHYLAMMONIUM], the Activity [2] was 0%.

In the case of `CNC(=O)c1cccnc1` [NICOTINYL METHYLAMIDE], the activity at 10000 uM [3] is reported as 0%.

Molecule `Cc1ncc(C[n+]2csc(CCO)c2C)c(N)n1` [THIAMINE ION] has an activity at 10000 uM [4] of 0%.

B1: Solute carrier family 22 member 1 (Mus musculus) (protein)
chain: T1 sequence (O08966 whole entry)
B1 showed a Km [5] of 42 µM and a Km [6] of 43 µM.

Source: ChEMBL document CHEMBL2074544 (J Lipid Res, 2000)
